Measurements: ChEMBL document CHEMBL3352371, “Antiadhesive properties of glycoclusters against Pseudomonas aeruginosa lung infection” (J Med Chem, 2014)
The source made the active and inactive calls. No cut-off for these calls is given here.

Legend:
Pseudomonas aeruginosa [1] = test: Inhibition of deltalecA mutant expressing Pseudomonas aeruginosa PAO1 adhesion to human A549 cells 25 to 2500 uM; assay type: functional, organism-based
Pseudomonas aeruginosa [2] = test: Inhibition of biofilm formation of Pseudomonas aeruginosa PAO1 expressing deltalecA mutant at 5 mM after 24 hrs by crystal violet staining; assay type: functional, organism-based
Pseudomonas aeruginosa [3] = test: Effect on growth of Pseudomonas aeruginosa PAO1 at 0.1 to 5 mM after 24 hrs; assay type: organism-based; settings: 5000 µM
Pseudomonas aeruginosa [4] = test: Antimicrobial activity Pseudomonas aeruginosa PAO1 infected C57BL6/J mouse lung injury model assessed as reduction in alveolar-capillary permeability using 1 mM compound pre-treated bacteria for infection; assay type: functional
Pseudomonas aeruginosa [5] = test: Inhibition of biofilm formation of Pseudomonas aeruginosa PAO1 expressing deltalecB mutant at 5 mM after 24 hrs by crystal violet staining; assay type: functional, organism-based
Pseudomonas aeruginosa [6] = test: Inhibition of deltalecB mutant expressing Pseudomonas aeruginosa PAO1 adhesion to human A549 cells 25 to 2500 uM; assay type: functional, organism-based
Pseudomonas aeruginosa [7] = test: Induction of filamentous-like and spherical bacterial aggregation in Pseudomonas aeruginosa PAO1 expressing deltalecB mutant at 6 to 6600 uM by optical microscopy; assay type: functional, organism-based
Pseudomonas aeruginosa [8] = test: Inhibition of biofilm formation of Pseudomonas aeruginosa PAO1 at 0.1 mM after 24 hrs by crystal violet staining; assay type: functional, organism-based
[9] = Binding affinity to Pseudomonas aeruginosa LecB by ITC method
Pseudomonas aeruginosa [10] = test: Antimicrobial activity Pseudomonas aeruginosa PAO1 infected C57BL6/J mouse lung injury model assessed as reduction in alveolar-capillary permeability using 5 mM compound pre-treated bacteria for infection; assay type: functional
Pseudomonas aeruginosa [11] = test: Induction of filamentous-like and spherical bacterial aggregation in Pseudomonas aeruginosa PAO1 at 6 to 6600 uM by optical microscopy; assay type: functional, organism-based
Pseudomonas aeruginosa [12] = test: Inhibition of Pseudomonas aeruginosa PAO1 adhesion to human A549 cells 25 to 2500 uM; assay type: functional
Pseudomonas aeruginosa [13] = test: Induction of bacterial aggregation in Pseudomonas aeruginosa PAO1 expressing deltalecB mutant assessed as number of aggregates per 100 uL of PBS cell solution at 100 uM by optical microscopy; assay type: functional
Pseudomonas aeruginosa [14] = test: Inhibition of Pseudomonas aeruginosa PAO1 localization at human A549 cell membranes at 250 to 2500 uM by confocal microscopy; assay type: functional, organism-based
Pseudomonas aeruginosa [15] = test: Antimicrobial activity Pseudomonas aeruginosa PAO1 infected C57BL6/J mouse lung injury model assessed as protection against lung infection using 1 to 5 mM compound pre-treated bacteria for infection; assay type: functional, organism-based
Pseudomonas aeruginosa [16] = test: Inhibition of biofilm formation of Pseudomonas aeruginosa PAO1 at 5 mM after 24 hrs by crystal violet staining; assay type: functional, organism-based
Pseudomonas aeruginosa [17] = test: Induction of bacterial aggregation in Pseudomonas aeruginosa PAO1 expressing deltalecA mutant assessed as number of aggregates per 100 uL of PBS cell solution at 100 uM by optical microscopy; assay type: functional, organism-based
Pseudomonas aeruginosa [18] = test: Induction of bacterial aggregation in Pseudomonas aeruginosa PAO1 assessed as number of aggregates per 100 uL of PBS cell solution at 100 uM by optical microscopy; assay type: functional
[19] = molecular target: T1, PA-I galactophilic lectin (Pseudomonas aeruginosa (strain ATCC 15692 / PAO1 / 1C / PRS 101 / LMG12228), UniProt Q05097); test: Binding affinity to Pseudomonas aeruginosa LecA by ITC method
T1 sequence (Q05097 whole entry): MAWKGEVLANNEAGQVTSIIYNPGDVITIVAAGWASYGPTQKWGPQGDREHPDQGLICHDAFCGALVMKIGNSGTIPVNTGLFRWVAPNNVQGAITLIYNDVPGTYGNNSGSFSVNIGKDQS

Pseudomonas aeruginosa [20] = test: Inhibition of deltalecA mutant expressing Pseudomonas aeruginosa PAO1 adhesion to human A549 cells <250 uM; assay type: functional, organism-based
Pseudomonas aeruginosa [21] = test: Induction of filamentous-like and spherical bacterial aggregation in Pseudomonas aeruginosa PAO1 expressing deltalecA mutant at 6 to 6600 uM by optical microscopy; assay type: functional, organism-based
Pseudomonas aeruginosa [22] = test: Inhibition of deltalecA mutant expressing Pseudomonas aeruginosa PAO1 adhesion to human A549 cells 250 to 2500 uM; assay type: functional, organism-based
Pseudomonas aeruginosa [23] = test: Induction of bacterial aggregation in Pseudomonas aeruginosa PAO1 expressing deltalecB mutant at 6 to 5000 uM by optical microscopy; assay type: functional, organism-based
Pseudomonas aeruginosa [24] = test: Induction of bacterial aggregation in Pseudomonas aeruginosa PAO1 expressing deltalecA mutant at 6 to 5000 uM by optical microscopy; assay type: functional, organism-based
Pseudomonas aeruginosa [25] = test: Induction of bacterial aggregation in Pseudomonas aeruginosa PAO1 at 6 to 5000 uM by optical microscopy; assay type: functional, organism-based
Pseudomonas aeruginosa [26] = test: Inhibition of biofilm formation of Pseudomonas aeruginosa PAO1 at 0.1 to 5 mM after 24 hrs by crystal violet staining; assay type: functional, organism-based
Pseudomonas aeruginosa [27] = test: Antimicrobial activity Pseudomonas aeruginosa PAO1 infected C57BL6/J mouse lung injury model assessed as effect on alveolar-capillary permeability using 5 mM compound pre-treated bacteria for infection; assay type: functional, organism-based
Pseudomonas aeruginosa [28] = test: Antimicrobial activity Pseudomonas aeruginosa PAO1 infected C57BL6/J mouse lung injury model assessed as effect on alveolar-capillary permeability using 1 mM compound pre-treated bacteria for infection; assay type: functional, organism-based
Pseudomonas aeruginosa [29] = test: Binding affinity to Pseudomonas aeruginosa LecB at 1.5 mM by ITC method
[30] = molecular target: T2, PA-I galactophilic lectin (Pseudomonas aeruginosa (strain ATCC 15692 / PAO1 / 1C / PRS 101 / LMG12228)) (UniProt Q05097); test: Binding affinity to Pseudomonas aeruginosa LecA at 1.5 mM by ITC method
T2 sequence (whole entry): T1 sequence (Q05097 whole entry)

## C[C@@H]1O[C@@H](OCCOCCOCCn2cc(COc3c4cc(C(C)(C)C)cc3Cc3cc(C(C)(C)C)cc(c3OCc3cn(CCOCCOCCO[C@@H]5O[C@@H](C)[C@@H](O)[C@@H](O)[C@@H]5O)nn3)Cc3cc(C(C)(C)C)cc(c3OCc3cn(CCOCCOCCO[C@@H]5O[C@@H](C)[C@@H](O)[C@@H](O)[C@@H]5O)nn3)Cc3cc(C(C)(C)C)cc(c3OCc3cn(CCOCCOCCO[C@@H]5O[C@@H](C)[C@@H](O)[C@@H](O)[C@@H]5O)nn3)C4)nn2)[C@@H](O)[C@H](O)[C@@H]1O
Pseudomonas aeruginosa [1]
  inhibition: Active
Pseudomonas aeruginosa [2]
  inhibition: Active
Pseudomonas aeruginosa [3]
  Activity: Non-toxic
Pseudomonas aeruginosa [4]
  inhibition (INH): 50%
Pseudomonas aeruginosa [5]
  inhibition: Active
Pseudomonas aeruginosa [6]
  inhibition: inactive
Pseudomonas aeruginosa [7]
  Activity: Active
Pseudomonas aeruginosa [8]
  inhibition: inactive
[9]
  Kd: 48 nM
Pseudomonas aeruginosa [10]
  inhibition (INH): 50%
Pseudomonas aeruginosa [11]
  Activity: Active
Pseudomonas aeruginosa [12]
  inhibition (INH): 90%
Pseudomonas aeruginosa [13]
  Activity: 50
Pseudomonas aeruginosa [14]
  inhibition: Active
Pseudomonas aeruginosa [15]
  Activity: inactive
Pseudomonas aeruginosa [16]
  inhibition: Active

## CO[C@H]1O[C@H](CO)[C@@H](O)[C@H](O)[C@@H]1O
Pseudomonas aeruginosa [17]
  Activity: inactive
Pseudomonas aeruginosa [13]
  Activity: inactive
Pseudomonas aeruginosa [18]
  Activity: inactive

## OCc1cn(CCOCCOCCO[C@@H]2O[C@H](CO)[C@H](O)[C@H](O)[C@H]2O)nn1
[19]
  Kd: 150000 nM

## C[C@@H]1O[C@@H](OCCOCCOCCn2cc(CO)nn2)[C@@H](O)[C@H](O)[C@@H]1O
[9]
  Kd: 304 nM

## C[C@H]1O[C@@H](OCCOCCOCCn2cc(COc3c4cc(C(C)(C)C)cc3Cc3cc(C(C)(C)C)cc(c3OCc3cn(CCOCCOCCO[C@@H]5O[C@H](CO)[C@H](O)[C@H](O)[C@H]5O)nn3)Cc3cc(C(C)(C)C)cc(c3OCc3cn(CCOCCOCCO[C@@H]5O[C@H](CO)[C@H](O)[C@H](O)[C@H]5O)nn3)Cc3cc(C(C)(C)C)cc(c3OCc3cn(CCOCCOCCO[C@@H]5O[C@H](CO)[C@H](O)[C@H](O)[C@H]5O)nn3)C4)nn2)[C@H](O)[C@@H](O)[C@H]1O
[19]
  Kd: 176 nM
Pseudomonas aeruginosa [2]
  inhibition: Active
Pseudomonas aeruginosa [3]
  Activity: Non-toxic
Pseudomonas aeruginosa [4]
  inhibition (INH): 50%
Pseudomonas aeruginosa [20]
  inhibition: inactive
Pseudomonas aeruginosa [5]
  inhibition: Active
Pseudomonas aeruginosa [21]
  Activity: inactive
Pseudomonas aeruginosa [8]
  inhibition: inactive
Pseudomonas aeruginosa [17]
  Activity: inactive
Pseudomonas aeruginosa [10]
  inhibition (INH): 50%
Pseudomonas aeruginosa [11]
  Activity: Active
Pseudomonas aeruginosa [12]
  inhibition (INH): 70%
Pseudomonas aeruginosa [22]
  inhibition: Active
Pseudomonas aeruginosa [14]
  inhibition: Active
Pseudomonas aeruginosa [15]
  Activity: inactive
Pseudomonas aeruginosa [16]
  inhibition: Active

## CC(C)(C)c1cc2c(OCc3cn(CCOCCOCCO[C@H]4O[C@H](CO)[C@@H](O)[C@H](O)[C@@H]4O)nn3)c(c1)Cc1cc(C(C)(C)C)cc(c1OCc1cn(CCOCCOCCO[C@H]3O[C@H](CO)[C@@H](O)[C@H](O)[C@@H]3O)nn1)Cc1cc(C(C)(C)C)cc(c1OCc1cn(CCOCCOCCO[C@H]3O[C@H](CO)[C@@H](O)[C@H](O)[C@@H]3O)nn1)Cc1cc(C(C)(C)C)cc(c1OCc1cn(CCOCCOCCO[C@H]3O[C@H](CO)[C@@H](O)[C@H](O)[C@@H]3O)nn1)C2
Pseudomonas aeruginosa [2]
  inhibition: inactive
Pseudomonas aeruginosa [5]
  inhibition: inactive
[9]
  Kd: 2270 nM
Pseudomonas aeruginosa [13]
  Activity: 11
Pseudomonas aeruginosa [18]
  Activity: 70

## CO[C@H]1O[C@H](CO)[C@H](O)[C@H](O)[C@H]1O
Pseudomonas aeruginosa [23]
  Activity: inactive
Pseudomonas aeruginosa [17]
  Activity: inactive
Pseudomonas aeruginosa [24]
  Activity: inactive
Pseudomonas aeruginosa [13]
  Activity: inactive
Pseudomonas aeruginosa [18]
  Activity: inactive
Pseudomonas aeruginosa [25]
  Activity: inactive

## CO[C@@H]1O[C@@H](C)[C@@H](O)[C@@H](O)[C@@H]1O
Pseudomonas aeruginosa [1]
  inhibition: Active
Pseudomonas aeruginosa [23]
  Activity: inactive
Pseudomonas aeruginosa [26]
  inhibition: inactive
Pseudomonas aeruginosa [27]
  Activity: inactive
Pseudomonas aeruginosa [6]
  inhibition: inactive
Pseudomonas aeruginosa [24]
  Activity: inactive
Pseudomonas aeruginosa [12]
  inhibition (INH): 65%
Pseudomonas aeruginosa [25]
  Activity: inactive
Pseudomonas aeruginosa [28]
  Activity: inactive

## CO[C@@H]1O[C@H](CO)[C@H](O)[C@H](O)[C@H]1O
Pseudomonas aeruginosa [23]
  Activity: inactive
Pseudomonas aeruginosa [20]
  inhibition: inactive
Pseudomonas aeruginosa [26]
  inhibition: inactive
Pseudomonas aeruginosa [27]
  Activity: inactive
Pseudomonas aeruginosa [17]
  Activity: inactive
Pseudomonas aeruginosa [24]
  Activity: inactive
Pseudomonas aeruginosa [12]
  inhibition (INH): 30%
Pseudomonas aeruginosa [13]
  Activity: inactive
Pseudomonas aeruginosa [18]
  Activity: inactive
Pseudomonas aeruginosa [25]
  Activity: inactive
Pseudomonas aeruginosa [28]
  Activity: inactive

## CC(C)(C)c1cc2c(OCc3cn(CCOCCOCCO[C@@H]4O[C@H](CO)[C@@H](O)[C@H](O)[C@H]4O)nn3)c(c1)Cc1cc(C(C)(C)C)cc(c1OCc1cn(CCOCCOCCO[C@@H]3O[C@H](CO)[C@@H](O)[C@H](O)[C@H]3O)nn1)Cc1cc(C(C)(C)C)cc(c1OCc1cn(CCOCCOCCO[C@@H]3O[C@H](CO)[C@@H](O)[C@H](O)[C@H]3O)nn1)Cc1cc(C(C)(C)C)cc(c1OCc1cn(CCOCCOCCO[C@@H]3O[C@H](CO)[C@@H](O)[C@H](O)[C@H]3O)nn1)C2
Pseudomonas aeruginosa [2]
  inhibition: inactive
Pseudomonas aeruginosa [26]
  inhibition: inactive
Pseudomonas aeruginosa [5]
  inhibition: inactive
Pseudomonas aeruginosa [29]
  Activity: inactive
[30]
  Activity: inactive
Pseudomonas aeruginosa [17]
  Activity: inactive
Pseudomonas aeruginosa [13]
  Activity: inactive
Pseudomonas aeruginosa [18]
  Activity: inactive
